The results in this text go back to US4016176A, “Esters of 4-hydroxy-2,9-dioxatricyclo[4.3.1.0^3,7 ] decanes and processes for their production” (Kali-Chemie Pharma GmbH, priority 1973, dated 1977).

Like-named read-outs stand apart in the source and are kept apart here.

One may read the ED50 as the dose that gives a 50% effect, or the effect in half of the subjects. A word on the LD50: it is the dose at which mortality reaches 50%.

The subject of data set [1] is mice. The experiment in a line: acute toxicity (LD50) in mice. Type of data set: in vivo, mouse. The settings on record: for B - lethal dose (LD50) to mice, intraperitoneally / A - lethal dose (LD50) to mice, per os: mouse, Table 3; for B - lethal dose (LD50) to mice, intraperitoneally: intraperitoneal; for relative toxicity compared with the 4-hydroxy compound (in words): 4β-esters compared with Compound No. 1246. The text has this: (§1) In the Table 3 which follows are listed results of tests pertaining to the effectiveness of various compounds that are disclosed herein. The results are included in the several columns under letters whose significance is as follows:
(§2) A - lethal dose (LD50) to mice in milligrams per kilogram of body weight of the mouse when administered per os.
(§3) B - lethal dose (LD50) to mice in milligrams per kilogram of body weight of the mouse when administered intraperitoneally.
(§4) A. lethal dose (LD50) to mice in milligrams per kilogram body weight of the mouse when administered per os.
(§5) B. lethal dose (LD50) to mice in milligrams per kilogram body weight of the mouse administered intraperitoneally.
(§6) The values specified in Tables 4 and 5 hereinafter refer to milligrams per kilogram of body weight of the mouse.
(§7) Tests performed in accordance with the procedure described by Campbell and Richter in Acta Pharmacol. et Toxicol., vol. […] This is indicated by the results that are reported in Table 5 in which the headings A and F have the same significance as hereinbefore while the values in the column heading L pertain to the dose in milligrams per kilogram of body weight that was required to produce a lowering of the rectal temperature, which are values indicative of the depressant effect of a compound upon the central nervous system.

The subject of data set [2] is mouse. The data set is described as follows: ataxia in mice. Type of data set: in vivo. The conditions noted are these: mouse; for C - ataxia: dose required to produce ataxia in a mouse: Table 3.
From the text: as §1
C - ataxia: Dose in milligrams per kilogram of body weight required to produce ataxia in a mouse.

Data set [3] relates to mice. The data set is described as follows: narcosis (lateral position) in mice. The class given is in vivo, mouse. The conditions noted are these: mouse. The source says:
(§8) In the Table 3 which follows are listed results of tests pertaining to the effectiveness of various compounds that are disclosed herein.

Data set [4] relates to mouse. The experiment in a line: prolongation of narcosis produced by hexobarbital in mice. The conditions noted are these: for E - dose which prolongs narcosis produced by hexobarbital in a mouse by a factor of 4: factor of 4, Table 3. The class given is in vivo.
From the text: as §8

In data set [5] the test system is mouse. The data set is described as follows: sedative effect, comparison of esters with 4-hydroxy compounds. Type of data set: in vivo. The settings on record: for sedative effect relative to the corresponding hydroxy compound (in words): compared with corresponding hydroxy compounds, Compound No. 1561; for sedative effect or ataxia relative to the 4-hydroxy compound (in words): 4β-esters compared with Compound No. 1246. The text has this: The effectiveness of the 2,9-dioxatricyclo[4.3.1.0^3,7 ]decanes of the present invention as narcotics is obviously sterospecifically related to the 4αconfiguration. Particularly surprising is the narcotic effect of the esters as compared to the 4-hydroxy compounds. Whereas nearly 300 or even 800 milligrams per kilogram of the 4-hydroxy compounds are required to induce narcosis, the required doses of the carbamates is only at most 100 milligrams per kilogram and their toxicity is in general very low.

Data set [6] can be described thus: acute toxicity (LD50) in mice. The class given is in vivo, mouse. The conditions noted are these: mouse, in vivo, mouse.
From the text: as §1, §2, §3, §4, §5, §6, §7

Data set [7] deals with white mice. The data set is described as follows: ptosis test (Campbell and Richter screening). The class given is in vivo, mouse. The settings on record: for dose producing ptosis relative to the 4-hydroxy compound (in words): compared with Compound No. 1561; for F ptosis test: mouse, Table 5.
From the text: (§9) The sedative and hypnotic effectiveness of the compounds of the invention were also ascertained by screening tests with white mice described by Campbell and Richter in Acta Pharmacol. et Toxicol. 25 (1967) page 345. In Table 4 the results of various specific screening tests are listed. These tests were as follows:
as §6, §7

The subject of data set [8] is mouse. The experiment in a line: lowering of the rectal temperature in mice. The class given is in vivo. The settings on record: mouse; Table 5; read-out: L dose required to produce a lowering of the rectal temperature.
From the text: as §6, §7

Data set [9] has as its system white mice. The experiment in a line: climbing test (Campbell and Richter screening). Type of data set: in vivo. The conditions noted are these: mouse; Table 4; read-out: J. climbing test (ED50).
From the text: as §9, §6

Data set [10] concerns white mice. The experiment in a line: balance bar test (Campbell and Richter screening). The conditions noted are these: mouse; Table 4; read-out: K. balance bar test (ED50). The class given is in vivo.
From the text: as §9
K. balance bar test (ED50).
as §6

Setting [11] is: po, per os, Table 5, read-out: A lethal dose (LD50) to mice, per os.
Setting [12] is: po, per os, Table 3, read-out: A - lethal dose (LD50) to mice, per os.
The mark [13] stands for this setting: ip, intraperitoneal, Table 4, read-out: B. lethal dose (LD50) to mice, intraperitoneally.
[14] abbreviates: po, per os, Table 4, read-out: A. lethal dose (LD50) to mice, per os.

As for `CCNC(=O)OC1CC2C(C)C3OC(OC)C2C1(C)O3` (stereo not drawn) [Compound No. 2026, 4α-(N-Ethylcarbamyloxy)-8-methoxy-3,10-dimethyl-2,9-dioxatricyclo[4.3.1.0^3,7]decane], in the data set with mice [1], the “B - lethal dose (LD50) to mice, intraperitoneally” value (“B - lethal dose (LD50) to mice” below) was 297 milligrams per kilogram of bod and the “A - lethal dose (LD50) to mice, per os” value was 518 milligrams per kilogram of bod. Further, in the data set with mouse [2], the “C - ataxia: dose required to produce ataxia in a mouse” value (“C - ataxia: dose required” below) is 68.1 milligrams per kilogram of bod. Also, the ED50 with mice [3] (ip, 0.05 h, read-out: D - narcosis (lateral position): dose (ED50) which produces narcosis for 3 minutes in 50% of the mice, intraperitoneal, narcosis for 3 minutes, Table 3) is 100 mg/kg. Besides, the “E - dose which prolongs narcosis produced by hexobarbital in a mouse by a factor of 4” value (shortened to “E - dose which prolongs narcosis produced … of 4”) in the data set on mouse [4] was 31.6 milligrams per kilogram of bod. For the same compound, the “sedative effect relative to the corresponding hydroxy compound (in words)” value in the data set on mouse [5] is “greater sedative effect than the corresponding hydroxy compounds”.

Take `COC1OC2OC3(C)C(OC(=O)NC(C)C)CC(C2C)C13` (stereo not drawn) [Compound No. 2057, 4β-(N-Isopropylcarbamyloxy)-3,10-dimethyl-8-methoxy-2,9-dioxatricyclo[4.3.1.0^3,7]decane]: in the data set with mice [1], the “relative toxicity compared with the 4-hydroxy compound (in words)” value (“relative toxicity” below) is “reduction in the relative toxicity”; the “B - lethal dose (LD50) to mice” value is reported as 1000 milligrams per kilogram of bod; the “A - lethal dose (LD50) to mice, per os” value was > 1470 milligrams per kilogram of bod. In the data set on mouse [2], the “dose required for producing ataxia” value is 147 milligrams per kilogram of body weight and the “C - ataxia: dose required” value is recorded as 147 milligrams per kilogram of bod. Further, the “narcosis (in words)” value in the data set with mice [3] (comparison of epimers) is given as “produces neither a narcosis nor a prolongation of narcosis produced by hexobarbital”. Besides, in the data set with mouse [4] (comparison of epimers), the “prolongation of narcosis produced by hexobarbital (in words)” value is “produces neither a narcosis nor a prolongation of narcosis produced by hexobarbital”. Besides, the “sedative effect or ataxia relative to the 4-hydroxy compound (in words)” value with mouse [5] was “distinct increase in the sedative effect or ataxia”.

As to `COC1OC2OC3(C)C(OC(C)=O)CC(C2C)C13` (stereo not drawn) [Compound No. 2080, 4α-Acetoxy-8-methoxy-3,10-dimethyl-2,9-dioxatricyclo[4.3.1.0^3,7]decane], in data set [6] (setting [11]), the LD50 is 1470 mg/kg. Also, in the data set with mice [1], the “B - lethal dose (LD50) to mice” value was > 1000 milligrams per kilogram of bod and the “A - lethal dose (LD50) to mice, per os” value is > 1470 milligrams per kilogram of bod. For the same compound, in the data set with mouse [2], the “C - ataxia: dose required” value is listed as 50 milligrams per kilogram of bod. Moreover, in the data set on white mice [7], the “dose producing ptosis relative to the 4-hydroxy compound (in words)” value was “one-fourth or one-half of the dose required of the 4-hydroxy-compound” and the F ptosis test is recorded as 100 milligrams per kilogram of bod. In the data set with mouse [8], the minimal effective dose stood at 400 mg/kg. For the same compound, the “sedative effect relative to the corresponding hydroxy compound (in words)” value with mouse [5] is “greater sedative effect than the corresponding hydroxy compounds”.

In the case of `CCNC(=O)OC1CC2C(C)C3OC(OC)C2C1(C)O3` (centres unmarked) [compound 1767], in the data set with mice [1], the “relative toxicity” value is reported as “reduction in the relative toxicity”; the “B - lethal dose (LD50) to mice” value is 890 milligrams per kilogram of bod; the “A - lethal dose (LD50) to mice, per os” value is on record as > 1500 milligrams per kilogram of bod. Further, the “C - ataxia: dose required” value in the data set with mouse [2] is 400 milligrams per kilogram of bod. Also, the “sedative effect or ataxia relative to the 4-hydroxy compound (in words)” value in the data set on mouse [5] is “distinct increase in the sedative effect or ataxia”.

For the compound `CCC(=O)OC1CC2C(C)C3OC(OC)C2C1(C)O3` (centres unmarked) [compound 2044], the LD50 in data set [6] (setting [12]) was 1470 mg/kg. For the same compound, in the data set on mice [1], the “relative toxicity” value is recorded as “reduction in the relative toxicity” and the “B - lethal dose (LD50) to mice” value is 436 milligrams per kilogram of bod. Also, the “C - ataxia: dose required” value in the data set on mouse [2] was 147 milligrams per kilogram of bod. Besides, the “sedative effect or ataxia relative to the 4-hydroxy compound (in words)” value with mouse [5] was “distinct increase in the sedative effect or ataxia”.

As for `COC1OC2OC3(C)C(OC(C)=O)CC(C2C)C13` (centres unmarked) [compound 2045], the LD50 in data set [6] (ip, intraperitoneal, Table 3, read-out: B - lethal dose (LD50) to mice, intraperitoneally) turned out to be 1000 mg/kg; in [6] (setting [12]), 1470 mg/kg. Moreover, the “relative toxicity” value with mice [1] is listed as “reduction in the relative toxicity”. Besides, the “C - ataxia: dose required” value in the data set with mouse [2] was 200 milligrams per kilogram of bod. The “E - dose which prolongs narcosis produced … of 4” value in the data set on mouse [4] is listed as 316 milligrams per kilogram of bod. For the same compound, in the data set with mouse [5], the “sedative effect or ataxia relative to the 4-hydroxy compound (in words)” value is “distinct increase in the sedative effect or ataxia”.

As to `CCC(=O)OC1CC2C(C)C3OC(OC)C2C1(C)O3` (centres unmarked) [compound 2081], the LD50 in data set [6] (setting [11]) was more than 1470 mg/kg. Further, in the data set with mice [1], the “B - lethal dose (LD50) to mice” value was 1379 milligrams per kilogram of bod and the “A - lethal dose (LD50) to mice, per os” value is > 1470 milligrams per kilogram of bod. Further, the “C - ataxia: dose required” value in the data set on mouse [2] is 50 milligrams per kilogram of bod. Also, the “E - dose which prolongs narcosis produced … of 4” value in the data set with mouse [4] is 316 milligrams per kilogram of bod. Besides, in the data set on white mice [7], the “dose producing ptosis relative to the 4-hydroxy compound (in words)” value is recorded as “one-fourth or one-half of the dose required of the 4-hydroxy-compound” and the F ptosis test was 200 milligrams per kilogram of bod. The minimal effective dose in the data set with mouse [8] was 100 mg/kg. Further, the “sedative effect relative to the corresponding hydroxy compound (in words)” value in the data set with mouse [5] was “greater sedative effect than the corresponding hydroxy compounds”.

For the compound `CCCCNC(=O)OC1CC2C(C)C3OC(OC)C2C1(C)O3` (centres unmarked) [compound 2327], the median lethal dose (LD50) in data set [6] (setting [13]) was determined as 432 mg/kg; in data set [6] (setting [14]), 690 mg/kg. Also, the ED50 in the data set with white mice [9] was 56 mg/kg; with white mice [10], 18 mg/kg.

On to `COC1OC2OC3(C)C(OC(=O)NC(C)(C)C)CC(C2C)C13` (centres unmarked) [compound 2328], for which the results for the LD50 in data set [6] (setting [13]) and in [6] (setting [14]) were 1130 mg/kg and 1470 mg/kg, respectively. The ED50 with white mice [9] stood at 175 mg/kg; in the data set with white mice [10], 56 mg/kg.

With `CCCNC(=O)OC1CC2C(C)C3OC(OC)C2C1(C)O3` (centres unmarked) [compound 2364], the LD50 came out at 244 mg/kg in data set [6] (setting [13]) and 327 mg/kg in data set [6] (setting [14]). For the same compound, the ED50 was found to be 44 mg/kg in the data set on white mice [9] and 38 mg/kg in the data set on white mice [10].

With `C=C1C2OC(OC)C3C1CC(OC(=O)NCCC)C3(C)O2` (centres unmarked) [compound 2388], the LD50 in data set [6] (setting [13]) came out at 516 mg/kg; in data set [6] (setting [14]), 619 mg/kg. The ED50 in the data set with white mice [9] was 75 mg/kg; with white mice [10], 33 mg/kg.

Consider `CNC(=O)OC1CC2C(C)C3OC(OC)C2C1(C)O3` (centres unmarked) [compound 2500], for which the LD50 amounted to 954 mg/kg in [6] (setting [13]) and 1140 mg/kg in data set [6] (setting [14]). Also, the ED50 came to 250 mg/kg in the data set with white mice [9] and 621 mg/kg with white mice [10].

Regarding `C=CCNC(=O)OC1CC2C(=C)C3OC(OCC)C2C1(C)O3` (centres unmarked) [compound 2658], the LD50 came to 331 mg/kg in [6] (setting [13]) and 470 mg/kg in data set [6] (setting [14]). For the same compound, the ED50 worked out at 185 mg/kg with white mice [9] and 62 mg/kg with white mice [10].
